Assays:
[1] = tested on: Porcine vascular endothelial cells (PAE); test: NOS enzyme activity in vascular endothelial cells (PAE), NOS kit; format: cell-based; conditions: for NOS enzyme activity: PAE cells
Method: Porcine vascular endothelial cells (PAE) were provided by the Institute of Urology, Peking University. The determination of the effect of icariside II on NOS activity in the endothelial cell is conducted using NOS kit (Cayman Chemical company, Ann Arbor, Mich., USA). Vascular endothelial cells (PAE) were treated with different concentrations of icariside II (0, 10^−9, 10^−8, 10^−7, 10^−6, 10^−5 and 10^−4 M) (sildenafil as the control group). 180 μl lysate was added into each culture well. 20 μl supernatant was used for protein concentration assay with BCA protein kit. And, 100 μl supernatant was analyzed for NOS activity with NOS kit (Cayman Chemical company, Ann Arbor, Mich., USA). NOS activity (units/mg)=[(valueNos-measure−valueNOS-blank)÷(38.3×10^6)]×[(2.15+supernatant volume)÷(15×supernatant volume)]÷[protein concentration of each Petri dish].

[2] = tested on: MPG nerve axon of old rats; test: MPG (major pelvic ganglion) culture, nerve axon growth; format: cell-based, rat; conditions: for MPG nerve axon growth compared to control group: old rats; for MPG nerve axon growth (length of the longest nerve axon): old rats (24-month-old), n = 9
Method: The 24-month-old Sprague-Dawley male rats were used. All experimental animals used in this study were under a protocol approved by the Institutional Animal Care and Use Committee. Rats were anesthetized by intraperitoneal injection of pentobarbital sodium (200 mg/kg). After midline incision on abdomen, major pelvic ganglion was carefully dissected from prostate. MPG culture and treatment: the Bilaterally MPG was rapidly removed and after washing with PBS, DCR were stripped from MPG and cut into 3 pieces with the same size. Reduced Growth Factor Matrigel (RGFM) was diluted three times with serum free RPMI-1640 medium and placed in the 35 mm Petri dish on ice. The diluted RGFM were poured onto the cold sterilized glass cover slip and incubated at 37° C. for 1 hour in 35 mm Petri dishes to make the RGFM steady. Then each MPG was embedded in 40 μl of pre-cooled RGFM and maintained at 37° C. for 5 minute and cultured in RPMI 1640 with 1% penicillin-streptomycin that is maintained in humidified cell culture incubator containing 5% CO2 at 37° C. The cultured MPG tissues were randomly divided into 3 groups: control group, icariside II and sildenafil groups. […] Three MGP from the younger groups and the three MPG from the older groups were cultured with designation dose for 48-72 hours. Measurement of nerve axon growth: at the 48 and 72 hours, Nikon DXM1200 digital camera connected to Zeiss Axiovert microscope and ACT-1 software (20 times magnification) was used to observe the nerve axon growth on the MPG. The digital image was analyzed by […] 4000 and the length of the longest nerve axon was calculated.

PAE cells = test: eNOS protein expression by Western blot in PAE cells; format: cell-based, porcine; conditions: 12.5 μM, 24 hr; for eNOS protein expression (normalized to β-actin): PAE cells; for eNOS expression levels: unstable strains
Method: 2) 5×10^5 of the PAE cells and PAE-EGFR cells were seeded into 35 mm Petri dishes plate in quadruplicate. After 12 hours, PAE and PAE-EGFR cells was treated with 12.5 μM icariside II and sildenafil for 24 hr, respectively. Then the treated PAE and PAE-EGFR cells were lysed with RIPA buffer and subjected to 8% SDS-PAGE electrophoresis. eNOS protein expression was detect by Western blot. After development with super ECL luminescence substrate, the band was analyzed with a Optical density scanner. The results were analyzed by normalizing to β-actin. 3) 5×10^5 of the PAE cells and PAE-EGFR cells were seeded into 35 mm Petri dishes plate in quadruplicate. After 12 hours, PAE and PAE-EGFR cells was treated with 12.5 μM icariside II and sildenafil for 24 hr, respectively, in the presence or absence with 100 μg/ml of EGF. Then the treated PAE and PAE-EGFR cells were lysed with RIPA buffer and subjected to 8% SDS-PAGE electrophoresis. eNOS protein expression was detect by Western blot. After development with super ECL substrate, the band was analyzed with an Optical density scanner. The resulted results were analyzed by normalizing to β-actin.

[3] = tested on: volunteers with erectile dysfunction; conditions: 500 mg/time, single oral administration before sexual activity; cited from earlier work
PDE5 = PDE5 (Homo sapiens, UniProt O76074); conditions: tested in vitro; previous study; cited from earlier work

| Compound | NOS enzyme activity ([1]; 10^−5 M) | NOS enzyme activity ([1]; 10^−6 M) | NOS enzyme activity ([1]; 10^−7 M) | NOS enzyme activity ([1]; 10^−8 M) | NOS enzyme activity ([1]; 10^−9 M) | effect on NOS activity in endothelial cells ([1]; endothelial cells (PAE, PAE-EGFR), p>0.05) | MPG nerve axon growth compared to control group ([2]; 10 nM, 100 nM, 1000 nM) | MPG nerve axon growth (length of the longest nerve axon) ([2]; 10 nM) | MPG nerve axon growth (length of the longest nerve axon) ([2]; 100 nM) | MPG nerve axon growth (length of the longest nerve axon) ([2]; 1000 nM) | eNOS protein expression (normalized to β-actin) (PAE cells) | eNOS expression levels (PAE cells) | erectile function after single oral administration [3] | NOS enzyme activity ([1]; 10^−6 M, listed as icariside II) | NOS enzyme activity ([1]; 10^−8 M, listed as icariside II) | PDE5 inhibiting potency (PDE5) |
| --- | --- | --- | --- | --- | --- | --- | --- | --- | --- | --- | --- | --- | --- | --- | --- | --- |
| CCCc1nn(C)c2c(=O)[nH]c(-c3cc(S(=O)(=O)N4CCN(C)CC4)ccc3OCC)nc12 [Sildenafil, sildenafil, reference compound] | 6.66 ± 0.65 u/mg | 5.99 ± 0.58 u/mg | 6.32 ± 0.63 u/mg | 5.85 ± 0.579 u/mg | 5.76 ± 0.56 u/mg | no significant effect | did not significantly affect | 215 ± 2.6 μm | 238 ± 3.5 μm | 219 ± 3.2 μm | 1.12 ± 0.09 | 1.38 | – | – | – | – |
| icariside II | 18.66 ± 1.79 u/mg | 19.1 ± 1.9 u/mg | 16.46 ± 1.63 u/mg | 10.71 ± 0.98 u/mg | 8.65 ± 0.87 u/mg | – | significantly increased | 295 ± 5.3 μm* | 325 ± 4.1 μm* | 406 ± 4.3 μm* | 1.08 ± 0.09 | 2.08 | some improvement on erectile function, but the effect is not significant | 19.1±1.891 u/mg | 10.71±1.09 u/mg | significantly lower than sildenafil |

— patent US8530433B2, “Use of icariside II in manufacture of products for preventing or treating male or female sexual dysfunction” (Bjo-Biomed Ltd, priority 2008, dated 2013)
